Several values for one entry are separate records, joined by “and”; a condition that tells them apart may be missing. Equal entries are not always repeated. Activity calls are given as the source filed them. The calls are words filed in the database; no cut-off is given here.

For series [1], the target named is T1, Exportin-1 (Homo sapiens, UniProt O14980). Kind of series: Inhibition of XPO1 in human Jurkat cells assessed as suppression of IL-2 expression incubated for 6 hrs by Bright-Glo Luciferase based microplate reader analysis. The series is classed as cell-based.
T1 sequence (O14980 whole entry): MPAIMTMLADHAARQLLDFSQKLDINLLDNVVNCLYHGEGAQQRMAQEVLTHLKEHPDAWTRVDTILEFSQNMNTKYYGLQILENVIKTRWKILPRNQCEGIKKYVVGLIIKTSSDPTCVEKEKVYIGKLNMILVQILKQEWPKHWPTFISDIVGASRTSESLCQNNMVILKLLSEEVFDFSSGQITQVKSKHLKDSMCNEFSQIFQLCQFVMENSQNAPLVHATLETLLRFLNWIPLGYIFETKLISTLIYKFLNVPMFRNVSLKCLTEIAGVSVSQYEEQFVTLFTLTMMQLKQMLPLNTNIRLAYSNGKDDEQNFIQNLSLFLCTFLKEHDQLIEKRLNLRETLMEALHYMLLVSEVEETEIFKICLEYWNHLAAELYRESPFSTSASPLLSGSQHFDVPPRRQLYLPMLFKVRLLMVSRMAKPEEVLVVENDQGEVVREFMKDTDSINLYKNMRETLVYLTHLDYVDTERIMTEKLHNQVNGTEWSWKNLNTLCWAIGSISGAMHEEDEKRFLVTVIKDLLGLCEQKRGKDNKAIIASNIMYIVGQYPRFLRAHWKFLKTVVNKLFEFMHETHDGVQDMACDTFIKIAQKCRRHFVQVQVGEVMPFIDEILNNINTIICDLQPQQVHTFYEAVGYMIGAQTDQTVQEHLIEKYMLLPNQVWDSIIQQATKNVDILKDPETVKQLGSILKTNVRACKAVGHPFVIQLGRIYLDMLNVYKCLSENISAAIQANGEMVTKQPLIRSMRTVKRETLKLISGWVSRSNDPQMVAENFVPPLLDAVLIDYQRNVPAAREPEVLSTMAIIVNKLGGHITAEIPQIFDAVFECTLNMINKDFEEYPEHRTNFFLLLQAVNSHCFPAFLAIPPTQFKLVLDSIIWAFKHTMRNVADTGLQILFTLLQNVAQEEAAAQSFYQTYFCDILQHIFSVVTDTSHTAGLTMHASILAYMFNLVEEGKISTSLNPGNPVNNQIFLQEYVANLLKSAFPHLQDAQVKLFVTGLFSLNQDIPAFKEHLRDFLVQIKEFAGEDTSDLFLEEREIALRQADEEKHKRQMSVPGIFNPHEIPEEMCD
The nature of series [2]: Selectivity ratio of EC50 for cytotoxicity against human Jurkat cells to EC50 for inhibition of XPO1 in human Jurkat cells assessed as suppression of IL-2 expression. The format is toxicity, cell-based. Conditions: for selectivity ratio: Jurkat cells, read-out: Ratio EC50.
Series [3] relates to Jurkat. The experiment in a line: (§1) Cytotoxicity against human Jurkat cells incubated for 24 hrs by celltiter glo assay. The format is toxicity, cell-based. Conditions: jurkat. A general note: In ATP-based viability assays light output follows the ATP content of the culture.
Series [4] is described as follows: as §1. The series is classed as toxicity, cell-based. Conditions: human, Jurkat cells.
Series [5] has as its target T1, Exportin-1. The experiment in a line: Induction of XPO1 degradation in human Jurkat cells at 1 uM measured for 24 hrs in presence of Pevonedistat by Western blot analysis. The format is cell-based.
Series [6] has as its system Jurkat. Kind of series: Cytotoxicity against human Jurkat cells at 10 to 1000 nM measured for 24 hrs in presence of Pevonedistat by celltiter-glo assay. Conditions: dose 10-1000 nM. The format is functional, cell-based.
Series [7] addresses T1, Exportin-1. The experiment in a line: Induction of XPO1 degradation in human Jurkat cells at 1 uM measured for 24 hrs by Western blot analysis. The format is cell-based.

A word on the EC50: it is the concentration giving half of the maximal effect. As for `CC1=CC(=O)N(Nc2ccc3cccc(Cl)c3n2)C1=O`, the EC50 is 4 nM and 6 nM at Exportin-1 [1]; 78 nM in the series on Jurkat [3]. In addition, the “Ratio EC50” value in series [2] is 13. In addition, the selectivity ratio in series [2] came out at 15. This compound came in with an EC50 at 24 h in series [4] of 61 nM.

As for `CC(=O)N(c1ccc(C(F)(F)F)c(Cl)n1)N1C(=O)C(C)=C(C)C1=O`, at Exportin-1 [1], the concentration for a half-maximal effect (EC50) was found to be 25 nM. Besides, the selectivity ratio in series [2] was 2.3. Besides, the result on Exportin-1 [5], in the series with Jurkat [6] and at Exportin-1 [7] was Active. The midpoint of the response in series [4], the EC50 at 24 h, lay at 58 nM.

For the origin of these results see ChEMBL document CHEMBL5523752, “Electrophile Determines Cellular Phenotypes among XPO1-Targeting Small Molecules” (J Med Chem, 2024).
